Reference: patent US10071042B2, “External dermatological agent for anti-ageing” (Hayashibara Co., Ltd., priority 2014, dated 2018)
Values belong to the compound of their own block, whether it stands above or below them.

Legend:
[1] = tested on: matrix metalloprotease-1; experiment: Matrix metalloprotease-1 production of NHDF after IL-1β, ELISA (Experiments 5 and 9); type: cell-based, human; conditions: 200 μM, single use; reduction against control
Method: Normal human dermal fibroblasts (NHDF), which had been suspended in a Dulbecco's Modified Eagle Medium supplemented with 10% fetal calf serum to give a concentration of 2.5×10^5 cells/mL, were placed in 96-well microplates by 0.1 mL/well and cultured until reaching a confluent state over the bottom of each well. Thereafter, the medium in each well was replaced with a fresh serum-free culture medium and culture for another 24 hours, added with any one of the test substances in Table 6 at each concentration shown in the table, and cultured for additional 24 hours. Then, the resulting cell cultures were added with human IL-1β to give a final concentration of 1 ng/ml, followed by culturing the cells for another 24 hours. After completion of the culture, matrix metalloprotease-1 in the supernatant in each well was detected with an enzyme-linked immuno sorbent assay (ELISA), commercialized by R & D Systems, Inc., MN, USA, developed coloration with tetramethylbenzidine, and measured for absorption at a wavelength of 450 nm. A control system was provided similarly as above except for not adding any test substance, and determined for the activity of matrix metalloprotease-1 similarly as in the above to be regarded as 100%. The production level of matrix metalloprotease-1 for each test substance was comparatively evaluated based on the following equation. Equation: Production level of matrix metalloprotease-1 (relative value (%))=[(Absorbance of a sample with any one of test substances)/(Absorbance of control)]×100
The experiment was repeated three times, and the data were compared to that of control with the Dunnett's multiple comparisons test. The symbol “*” means a level of significance of p<0.01.
Except for adding the test substances listed in Table 12 at respective concentrations shown in the table, experiments were respectively conducted in accordance with the methods in Experiment 5 disclosed in the specification to examine the effect of the combination use with ascorbic acid 2-glucoside used as a skin whitener in cosmetics on the action of anti-wrinkles by analogues of adenosine N1-oxide 5′-phosphate. A control system was provided and similarly treated as above except for not adding any test substance. The reduction rate of the production level of matrix metalloprotease-1 against that of control based on the following equation. Equation: Reduction rate of the production level of matrix metalloprotease−1(%)=100−[(Absorbance of a sample with any one of test substances)/(Absorbance of control)]×100

[2] = tested on: filaggrin protein; experiment: Expression of filaggrin protein, Western blot filaggrin/actin (Experiment 3); type: cell-based, human; conditions: 0.5 mM (positive control); control = 100%
Method: Then, the expression of filaggrin was induced in such a manner of further culturing the cells for another four days, while replacing the culture medium with an EpiLife medium supplemented with 2 μM, 5 μM, or 10 μM of sodium adenosine N1-oxide 5′-phosphate every three days. […] After four days culture, the resultant cells were washed with Dulbecco's phosphate buffered saline, added with 0.1 mL of an SDS sample buffer (pH 6.8) containing 62.5 mM Tris-HCl, 2% SDS, 10% glycerol, and 50 mM DTT along with a protease inhibitor, and collected with a cell scraper. The collected cells were boiled for 10 min, disrupted ultrasonically, and quantified with “Pierce BCA Protein Assay Kit”, commercialized by ThermoFisher Scientific K. K., Yokohama, Japan. A prescribed amount of the resulting disrupted cells was sampled and subjected to SDS-polyacrylamide gel electrophoresis in an amount of 100 μg/lane, and the resulting gel was transferred to a PVDF membrane. The resulting transferred PVDF membrane was blocked with “Block Ace”, commercialized by DS Pharma Biomedical Co., Ltd., Osaka, Japan, reacted with a 200-fold dilution of “AKH1”, a mouse anti-filaggrin antibody, commercialized by, Santa Cruz Biotechnology Inc., CA, USA, or a 20,000-fold dilution of “MAB1501”, a mouse actin antibody, commercialized by Chemicon International Inc., MA, USA, as a first antibody, and then reacted with a 2,000-fold dilution of “P0447”, an HRP-labeled anti-mouse immunoglobulin, commercialized by Dako Japan, Tokyo, Japan, as a secondary antibody. After the reaction, by using ECL Plus Western Blotting Detection System, commercialized by GE Healthcare Japan, Tokyo, Japan, bands were detected on “Hyperfilm ECL”, a chemiluminescent film commercialized by GE Healthcare Japan, Tokyo, Japan. The detected bands were analyzed and quantified with “Image J”, an image analyzing software. A control system with no addition of any of the test substances was provided and the increasing intensity ratio of a band of filaggrin/actin was regarded as 100%, with which data for the increased percentages of the intensity ratios of bands of filaggrin/actin of the test substances were comparatively evaluated.

[3] = tested on: normal human epidermal keratinocytes; experiment: Production level of cornified envelope, absorbance 310 nm (Experiments 1-2 and 7); type: cell-based; conditions: single use, increase over control
Method: Normal human epidermal keratinocytes were cultured similarly as in Experiment 1-1, except for adding the test substances listed in Table 2 at prescribed concentrations to the cells. The resulting cultured cells were washed once with phosphate buffered saline (PBS), followed by scrapping off the cells adhered to each culture plate by adding 0.5 mL of PBS to each well of the plates. The cell suspensions thus obtained were added with 10% sodium lauryl sulfate solution in a volume of ¼ of each of the suspension volumes, followed by stirring and freezing the resulting mixtures at −80° C. After thawing, the resulting mixtures were centrifuged at 12,000×g for 15 min, followed by collecting the cell precipitates which were then washed once with phosphate buffered saline containing 2% sodium lauryl sulfate. The resulting mixtures were centrifuged at 12,000×g for 15 min, followed by collecting the cells and suspending the collected cells with phosphate buffered saline containing 2% sodium lauryl sulfate and 20 mM dithiothreitol. The resulting cell suspensions were boiled in a boiling water bath for one hour and measured for absorbance at a wavelength of 310 nm to determine the production level of cornified envelope for each test system added with any of the test substances. A control system was provided similarly as above except for not adding any one of the test substances to the system, and determined for absorbance at a wavelength of 310 nm similarly as in the above to be regarded as 100%. The production level of cornified envelope for each test substance was relatively evaluated based on the following equation. Equation: Production level of cornified envelope (Relative value (%))=[(Absorbance of a sample with any one of test substances)/(Absorbance of Control)]×100
(§1) The experiment was repeated three times, and the data was subjected to the Dunnett's multiple comparisons with Control. The symbol “*” means a level of significance of p<0.01.
(§2) Except for adding the test substances listed in Tables 8 and 9 at respective concentrations shown in the tables, experiments were respectively conducted in accordance with the methods in Experiments 1-2 and 1-3 disclosed in the specification to examine the effect of the combination use of epigallocatechin gallate, which is used as an antioxidant for cosmetics, and sodium adenosine N1-oxide 5′-phosphate on the action of accelerating the cornified-envelope production and the action of enhancing the transglutaminase activity of sodium adenosine N1-oxide 5′-phosphate. A control system was provided and similarly treated as above except for not adding any test substance and was determined for both the increase rates of cornified-envelope production level and the transglutaminase activity, based on the following equations. Equation: Increase rate of cornified envelope production level (%)={[(Absorbance of a sample with any one of test substances)/(Absorbance of control)]×100}−100 Equation: Increase rate of transglutaminase (%)={[(Absorbance of a sample with any one of test substances)/(Absorbance of control)]×100}−100

[4] = tested on: transglutaminase; experiment: Transglutaminase activity, fluorescein cadaverine uptake (Experiments 1-3 and 7); type: cell-based, human; conditions: single use, increase over control
Method: Normal human epidermal keratinocytes were cultured similarly as in Experiment 1-1, except for adding the test substances as listed in Table 3 to respective culture systems. The cultured normal human epidermal keratinocytes were added with 100 μM of fluorescein cadaverine and allowed to stand for four hours. Thereafter, the resulting cells were washed once with phosphate buffered saline and further treated with cold methanol for 10 min for cell fixation. The fixed cells were washed thrice with cold methanol, followed by the addition of phosphate buffered saline. Fluorescein cadaverine taken in the cells via transglutaminase was analyzed with Cell Imaging Station, commercialized by Molecular Probes Life Technology, France, and the analyzed fluorescent intensities were regarded as transglutaminase activities. There was provided a control system similarly as in the above, except for not adding any of the test substances. The transglutaminase activity of each test substance was evaluated as a relative value determined with the following equation using the fluorescent intensity of the control system being regarded as 100%. Equation: Transglutaminase activity (relative value (%))=[(Fluorescent intensity of a sample with any one of test substances)/(Fluorescent intensity of control)]×100
as §1, §2

[5] = tested on: human epidermoid carcinoma cell line A-431; experiment: Tight-junction function, lucifer yellow transmittance (Experiments 2 and 8); type: cell-based; conditions: 3 mM, single use; reduction against control
Excerpt: A human epidermoid carcinoma cell line A-431 was suspended in a media, supplemented with any of the test substances disclosed in Table 4 and having respective concentrations as indicated in the table, to give a cell concentration of 1×10^5 cells/mL, and each cell suspension was placed in an insert cup for a 12-well culture plate by two milliliters per well, followed by culturing the cells until reaching a confluent state through over the bottom surface of each well. The inner and the outer cup volumes were adjusted to give two milliliters while checking both the liquid levels of the cups were constant, and lucifer yellow as a model for permeating substance, commercialized by Life Technologies Corporation, CA, USA, was added to each inner cup to give a final concentration of 100 μM. Thereafter, the fluorescent intensities of lucifer yellow in the culture media in both the inner and the outer cups were measured, followed by calculating the percentage of the fluorescent intensity of the outer cup against that of the sum of the outer and the inner cups for use as a transmittance of lucifer yellow with the following equation. Equation: Transmittance of lucifer yellow (%)={(Absorbance of a liquid outside of an insert cup)/[(Absorbance of a liquid inside of the insert cup)+(Absorbance of the liquid outside of the insert cup)]}×100
There was provided a control system prepared similarly as above except for not adding any of the test substances, and the transmittance of lucifer yellow was regarded as 100% for evaluating the reduction of transmittance due to the reinforcement of the function of tight junction, based on the following equation. Equation: Relative transmittance (Relative percentage (%)) of lucifer yellow=[(Transmittance of a sample with any one of test substances)/(Transmittance of control)]×100
The experiment was repeated three times, and the data was subjected to the Dunnett's multiple comparisons with control. The symbol “*” means a level of significance of p<0.01.
Except for adding the test substances listed in Table 11 at respective concentrations shown in the table, experiments were respectively conducted in accordance with the methods in Experiment 2 disclosed in the specification to examine the effect of the combination use with ethylenediaminetetraacetate used as a preservative for cosmetics on the action of reinforcing the function of tight junction by sodium adenosine N1-oxide 5′-phosphate. A control system was provided and similarly treated as above except for not adding any test substance. The reduction rate of relative transmittance of lucifer yellow against that of control based on the following equation. Equation: Reduction rate of relative transmittance of lucifer yellow (%)=100−[(Transmittance of a sample with any one of test substances)/(Transmittance of control)]×100

Compound: O=C1O[C@H]([C@@H](O)CO)C(O)=C1O[C@H]1O[C@H](CO)[C@@H](O)[C@H](O)[C@H]1O [Ascorbic acid 2-glucoside, reference compound]
Reduction rate of the production level of matrix metalloprotease-1 activity (%) [1]: 2.1%

Compound: [Ca+2].[Cl-].[Cl-] [CaCl2, calcium chloride, reference compound]
Relative expression level of filaggrin protein (%) [2]: 289%

Increase rate of transglutaminase activity (%) ([4]; 1.6 μM): 5.6% | Increase rate of transglutaminase activity (%) ([4]; 3.3 μM): 19.0% | Increase rate of transglutaminase activity (%) ([4]; 6.5 μM): 6.5%
Compound: O=C(O[C@@H]1Cc2c(O)cc(O)cc2O[C@@H]1c1cc(O)c(O)c(O)c1)c1cc(O)c(O)c(O)c1 [Epigallocatechin gallate, reference compound]
Increase rate of cornified envelope formation level (%) ([3]; 1.6 μM): 28.0% | Increase rate of cornified envelope formation level (%) ([3]; 3.3 μM): 37.3%

Compound: O=C(O)CN(CCN(CC(=O)O)CC(=O)O)CC(=O)O [Ethylenediaminetetraacetate, reference compound]
Reduction rate of relative transmittance of lucifer yellow (%) [5]: −24.7%
